Data published in US12195482B1 (Arcus Biosciences, Inc., priority 2022, dated 2025).

Experiments:
Axl = molecular target: T1, Axl (Homo sapiens, UniProt P30530); experiment: Biochemical potency, HTRF KinEASE-TK kinase assay; set-up: purchased Invitrogen; conditions: 5 nM AXL, 700 μM ATP
T1 sequence (P30530 26-894): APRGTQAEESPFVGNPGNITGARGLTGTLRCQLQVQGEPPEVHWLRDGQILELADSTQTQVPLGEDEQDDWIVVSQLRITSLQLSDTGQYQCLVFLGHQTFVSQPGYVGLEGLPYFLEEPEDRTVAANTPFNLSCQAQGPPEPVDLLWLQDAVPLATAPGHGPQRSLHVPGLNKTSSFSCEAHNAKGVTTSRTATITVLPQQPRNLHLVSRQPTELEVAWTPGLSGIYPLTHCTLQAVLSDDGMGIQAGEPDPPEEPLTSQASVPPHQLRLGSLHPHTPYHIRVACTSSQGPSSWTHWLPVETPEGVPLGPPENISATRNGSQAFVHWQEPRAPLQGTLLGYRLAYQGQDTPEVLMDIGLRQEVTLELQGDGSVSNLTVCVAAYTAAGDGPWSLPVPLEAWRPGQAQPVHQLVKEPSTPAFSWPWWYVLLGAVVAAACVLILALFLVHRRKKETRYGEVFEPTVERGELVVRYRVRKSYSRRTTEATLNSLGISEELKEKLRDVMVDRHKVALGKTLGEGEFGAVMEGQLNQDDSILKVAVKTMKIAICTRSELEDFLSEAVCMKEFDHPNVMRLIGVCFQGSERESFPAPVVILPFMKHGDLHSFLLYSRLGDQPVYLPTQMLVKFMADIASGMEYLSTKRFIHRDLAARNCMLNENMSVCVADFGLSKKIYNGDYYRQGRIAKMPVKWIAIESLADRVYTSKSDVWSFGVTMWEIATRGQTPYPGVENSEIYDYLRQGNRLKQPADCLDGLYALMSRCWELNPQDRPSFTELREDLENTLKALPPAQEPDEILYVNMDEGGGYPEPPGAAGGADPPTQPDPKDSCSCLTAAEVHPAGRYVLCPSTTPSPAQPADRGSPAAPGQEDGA
In short: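 Steps: compound plus kinase, 1 h RT; add ATP (700 µM final) and biotin-TK substrate (800 nM final); run 2 h RT; stop into streptavidin-XL665/anti-phospho cryptate detection mix, 1 h; read 665/620. AXL at 5 nM, TYRO3 and MER at 1 nM.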

p-AXL = molecular target: T2, p-AXL (Homo sapiens, UniProt P30530); experiment: Axl phosphorylation inhibition ELISA in HEK293T cells transfected with NanoLuc-tagged AXL; format: cell-based; conditions: 1 h compound incubation, media (OptiMEM)
T2 construct: expressed in transfected cells; host or cells: HEK293T
T2 sequence (P30530 26-894): T1 sequence (P30530 26-894)
In short: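 HEK293T cells transiently transfected one day earlier with NanoLuc-tagged AXL were exposed to 22-point 2-fold compound dilutions for 1 h at 37° C (70,000 cells/well), then lysed. Lysates captured on anti-phospho-tyrosine coated plates for 2 h; bound p-AXL read by NanoLuc luminescence; IC50 from 4-parameter logistic fit.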

Work on `O=c1ccccn1-c1ccc(-c2n[nH]c3ncc(-c4ccc5c(c4)CC[C@@H](N4C6COCC4C6)CC5)cc23)cc1` [Example 31, 1-[4-[5-[(7S)-7-(3-Oxa-6-azabicyclo[3.1.1]heptan-6-yl)-6,7,8,9-tetrahydro-5H-benzo[7]annulen-3-yl]-1H-pyrazolo[3,4-b]pyridin-3-yl]phenyl]pyridin-2-one] yielded an IC50 (Axl) of under 0.1 µM and an IC50 (p-AXL) of 0.1 to 1 µM.

In the case of `c1cnc(-c2ccc(-c3n[nH]c4ncc(-c5ccc6c(c5)CC[C@@H](N5C7COCC5C7)CC6)cc34)cc2)c(C2CC2)c1` [Example 179, 6-[(7S)-2-{3-[4-(3-Cyclopropylpyridin-2-yl)phenyl]-1H-pyrazolo[3,4-b]pyridin-5-yl}-6,7,8,9-tetrahydro-5H-benzo[7]annulen-7-yl]-3-oxa-6-azabicyclo[3.1.1]heptane], the IC50 (Axl) is reported as under 0.1 µM and the IC50 (p-AXL) is reported as 0.1 to 1 µM.

`O=C1CCCN1c1cccnc1-c1ccc(-c2c[nH]c3ncc(-c4ccc5c(c4)CC[C@@H](N4C6COCC4C6)CC5)cc23)cc1` [Example 7, 1-[2-(4-{5-[(7S)-7-{3-Oxa-6-azabicyclo[3.1.1]heptan-6-yl}-6,7,8,9-tetrahydro-5H-benzo[7]annulen-2-yl]-1H-pyrrolo[2,3-b]pyridin-3-yl}phenyl)pyridin-3-yl]pyrrolidin-2-one] gave an IC50 (Axl) of under 0.1 µM and an IC50 (p-AXL) of under 0.1 µM.

With `COc1cccnc1-c1ccc(-c2c[nH]c3ncc(-c4ccc5c(c4)CC[C@@H](N4C6COCC4C6)CC5)cc23)cc1` [Example 164, 6-[(7S)-2-{3-[4-(3-Methoxypyridin-2-yl)phenyl]-1H-pyrrolo[2,3-b]pyridin-5-yl}-6,7,8,9-tetrahydro-5H-benzo[7]annulen-7-yl]-3-oxa-6-azabicyclo[3.1.1]heptane] the IC50 (Axl) was under 0.1 µM and the IC50 (p-AXL) was under 0.1 µM.

With `C[C@@H]1COC(=O)N1c1cccnc1-c1ccc(-c2n[nH]c3ncc(-c4ccc5c(c4)CC[C@@H](N4C6COCC4C6)CC5)cc23)cc1` [Example 124, (4R)-4-Methyl-3-[2-(4-{5-[(7S)-7-{3-oxa-6-azabicyclo[3.1.1]heptan-6-yl}-6,7,8,9-tetrahydro-5H-benzo[7]annulen-2-yl]-1H-pyrazolo[3,4-b]pyridin-3-yl}phenyl)pyridin-3-yl]-1,3-oxazolidin-2-one] the IC50 (Axl) was under 0.1 µM and the IC50 (p-AXL) was under 0.1 µM.

In the case of `COc1cccnc1-c1ccc(-c2n[nH]c3ncc(-c4ccc5c(c4)CC[C@@H](N4C6COCC4C6)CC5)cc23)cc1` [Example 166, 6-[(7S)-2-{3-[4-(3-Methoxypyridin-2-yl)phenyl]-1H-pyrazolo[3,4-b]pyridin-5-yl}-6,7,8,9-tetrahydro-5H-benzo[7]annulen-7-yl]-3-oxa-6-azabicyclo[3.1.1]heptane], the IC50 (Axl) is reported as under 0.1 µM and the IC50 (p-AXL) is reported as under 0.1 µM.

In the case of `Cc1cnc(-c2ccc(-c3n[nH]c4ncc(-c5ccc6c(c5)CC[C@@H](N5C7COCC5C7)CC6)cc34)cc2)c(C)c1` [Example 119, 6-[(7S)-2-{3-[4-(3,5-Dimethylpyridin-2-yl)phenyl]-1H-pyrazolo[3,4-b]pyridin-5-yl}-6,7,8,9-tetrahydro-5H-benzo[7]annulen-7-yl]-3-oxa-6-azabicyclo[3.1.1]heptane], the IC50 (Axl) is reported as under 0.1 µM and the IC50 (p-AXL) is reported as under 0.1 µM.

`Cc1ccc(C)c(-c2ccc(-c3n[nH]c4ncc(-c5ccc6c(c5)CC[C@@H](N5C7COCC5C7)CC6)cc34)cc2)n1` [Example 120, 6-[(7S)-2-{3-[4-(3,6-Dimethylpyridin-2-yl)phenyl]-1H-pyrazolo[3,4-b]pyridin-5-yl}-6,7,8,9-tetrahydro-5H-benzo[7]annulen-7-yl]-3-oxa-6-azabicyclo[3.1.1]heptane] showed an IC50 (Axl) of under 0.1 µM and an IC50 (p-AXL) of under 0.1 µM.

With `c1ccc(-c2ccc(-c3c[nH]c4ncc(-c5ccc6c(c5)CC[C@@H](N5C7COCC5C7)CC6)cc34)cc2)nc1` [Example 155, 6-[(7S)-2-{3-[4-(Pyridin-2-yl)phenyl]-1H-pyrrolo[2,3-b]pyridin-5-yl}-6,7,8,9-tetrahydro-5H-benzo[7]annulen-7-yl]-3-oxa-6-azabicyclo[3.1.1]heptane] the IC50 (Axl) was under 0.1 µM and the IC50 (p-AXL) was 0.1 to 1 µM.

Work on `Cc1ncc(C)c(-c2ccc(-c3n[nH]c4ncc(-c5ccc6c(c5)CC[C@@H](N5C7COCC5C7)CC6)cc34)cc2)n1` [Example 122, 6-[(7S)-2-{3-[4-(2,5-Dimethylpyrimidin-4-yl)phenyl]-1H-pyrazolo[3,4-b]pyridin-5-yl}-6,7,8,9-tetrahydro-5H-benzo[7]annulen-7-yl]-3-oxa-6-azabicyclo[3.1.1]heptane] yielded an IC50 (Axl) of under 0.1 µM and an IC50 (p-AXL) of under 0.1 µM.

`OC1(c2cccnc2-c2ccc(-c3c[nH]c4ncc(-c5ccc6c(c5)CC[C@@H](N5C7COCC5C7)CC6)cc34)cc2)CCC1` [Example 22, 1-[2-[4-[5-[(7S)-7-(3-Oxa-6-azabicyclo[3.1.1]heptan-6-yl)-6,7,8,9-tetrahydro-5H-benzo[7]annulen-3-yl]-1H-pyrrolo[2,3-b]pyridin-3-yl]phenyl]pyridin-3-yl]cyclobutan-1-ol] showed an IC50 (Axl) of under 0.1 µM and an IC50 (p-AXL) of under 0.1 µM.

Work on `O=C1CCCCN1c1cccnc1-c1ccc(-c2n[nH]c3ncc(-c4ccc5c(c4)CC[C@@H](N4C6COCC4C6)CC5)cc23)cc1` [Example 127, 1-[2-(4-{5-[(7S)-7-{3-Oxa-6-azabicyclo[3.1.1]heptan-6-yl}-6,7,8,9-tetrahydro-5H-benzo[7]annulen-2-yl]-1H-pyrazolo[3,4-b]pyridin-3-yl}phenyl)pyridin-3-yl]piperidin-2-one] yielded an IC50 (Axl) of under 0.1 µM and an IC50 (p-AXL) of under 0.1 µM.

`CN(C)S(=O)(=O)c1cccnc1-c1ccc(-c2c[nH]c3ncc(-c4ccc5c(c4)CC[C@@H](N4C6COCC4C6)CC5)cc23)cc1` [Example 6, N,N-Dimethyl-2-(4-{5-[(7S)-7-{3-oxa-6-azabicyclo[3.1.1]heptan-6-yl}-6,7,8,9-tetrahydro-5H-benzo[7]annulen-2-yl]-1H-pyrrolo[2,3-b]pyridin-3-yl}phenyl)pyridine-3-sulfonamide] gave an IC50 (Axl) of under 0.1 µM and an IC50 (p-AXL) of under 0.1 µM.

`CC(C)(O)c1cccnc1-c1ccc(-c2n[nH]c3ncc(-c4ccc5c(c4)CC[C@@H](N4C6COCC4C6)CC5)cc23)nc1` [Example 100, 2-(6′-{5-[(7S)-7-{3-Oxa-6-azabicyclo[3.1.1]heptan-6-yl}-6,7,8,9-tetrahydro-5H-benzo[7]annulen-2-yl]-1H-pyrazolo[3,4-b]pyridin-3-yl}-[2,3′-bipyridin]-3-yl)propan-2-ol] gave an IC50 (Axl) of under 0.1 µM and an IC50 (p-AXL) of under 0.1 µM.

In the case of `Cc1cccnc1-c1ccc(-c2c[nH]c3ncc(-c4ccc5c(c4)CC[C@@](C)(N4CCC[C@H]4C)CC5)cc23)cc1` [Example 172, 3-Methyl-2-(4-{5-[(7S)-7-methyl-7-[(2R)-2-methylpyrrolidin-1-yl]-6,7,8,9-tetrahydro-5H-benzo[7]annulen-2-yl]-1H-pyrrolo[2,3-b]pyridin-3-yl}phenyl)pyridine], the IC50 (Axl) is reported as under 0.1 µM and the IC50 (p-AXL) is reported as under 0.1 µM.

Molecule `Cc1ccnc(-c2ccc(-c3n[nH]c4ncc(-c5ccc6c(c5)CC[C@@H](N5C7COCC5C7)CC6)cc34)cc2)c1C` [Example 118, 6-[(7S)-2-{3-[4-(3,4-Dimethylpyridin-2-yl)phenyl]-1H-pyrazolo[3,4-b]pyridin-5-yl}-6,7,8,9-tetrahydro-5H-benzo[7]annulen-7-yl]-3-oxa-6-azabicyclo[3.1.1]heptane] has an IC50 (Axl) of under 0.1 µM and an IC50 (p-AXL) of under 0.1 µM.

With `CN(C)C(=O)c1ccccc1-c1ccc(-c2n[nH]c3ncc(-c4ccc5c(c4)CC[C@@H](N4C6COCC4C6)CC5)cc23)cc1` [Example 12, N,N-Dimethyl-4′-{5-[(7S)-7-{3-oxa-6-azabicyclo[3.1.1]heptan-6-yl}-6,7,8,9-tetrahydro-5H-benzo[7]annulen-2-yl]-2H-pyrazolo[3,4-b]pyridin-3-yl}-[1,1′-biphenyl]-2-carboxamide] the IC50 (Axl) was under 0.1 µM and the IC50 (p-AXL) was under 0.1 µM.

In the case of `COC[C@H]1CCN([C@H]2CCc3ccc(-c4cnc5[nH]nc(-c6ccc(-c7ncccc7C)cc6)c5c4)cc3CC2)C1` [Example 132, 2-(4-{5-[(7S)-7-[(3S)-3-(Methoxymethyl)pyrrolidin-1-yl]-6,7,8,9-tetrahydro-5H-benzo[7]annulen-2-yl]-1H-pyrazolo[3,4-b]pyridin-3-yl}phenyl)-3-methylpyridine], the IC50 (Axl) is reported as under 0.1 µM and the IC50 (p-AXL) is reported as under 0.1 µM.

Work on `c1cnc(-c2ccc(-c3c[nH]c4ncc(-c5ccc6c(c5)CC[C@@H](N5C7COCC5C7)CC6)cc34)cc2)c(N2CCOCC2)c1` [Example 5, 6-[(7S)-2-(3-{4-[3-(Morpholin-4-yl)pyridin-2-yl]phenyl}-1H-pyrrolo[2,3-b]pyridin-5-yl)-6,7,8,9-tetrahydro-5H-benzo[7]annulen-7-yl]-3-oxa-6-azabicyclo[3.1.1]heptane] yielded an IC50 (Axl) of under 0.1 µM and an IC50 (p-AXL) of under 0.1 µM.
